What was measured:
[1] = system: activated human mast cell line (HMC-1 cells); assay: Real-time PCR of cytokine transcripts in activated HMC-1 cells; type: cell-based; settings: 50 μM, 37° C., 4 hours; HMC-1 cells activated with A23187 and PMA; normalized with GAPDH
Protocol: HMC-1 cells were grown in IMDM media supplemented with 100 U/ml of penicillin, 100 µg/ml of streptomycin, and 10% heat-inactivated FBS in an incubator containing 5% CO2 at 37° C. HMC-1 cells were activated by treatment with A23187 and PMA
In order to understand the inhibitory effect of capsiate on the increase of cytokines in activated HMC-1 cells, HMC-1 cells were treated with 50 μM of capsiate and capsaicin at 37° C. for 4 hours, respectively, and the transcript expressions of cytokines IL-6 and TNF-α were confirmed through real-time PCR. Total RNA was isolated from HMC-1 cells with RNeasy Mini kit (Quiagen, Valencia, Calif., USA) and the first strand of cDNA was synthesized using QuantTect Reverse Transcription kit (Quiagen, Germany). Real-time PCR was performed using KAPA SYBR fast qPCR kit (KAPA Blosystems, Woburn, Mass., USA). The following parameters were used for the PCR: 95° C. for 10 minutes, followed by 50 cycles of 95° C. for 20 seconds, 55° C. for 30 seconds, and 72° C. for 20 seconds. The gene expression levels were normalized with GAPDH expression level. The primer sets for IL-6 and TNF-α were purchased from QIAGEN.

[2] = system: activated mouse bone marrow derived mast cells (BMMCs); assay: ELISA of cytokines in activated BMMCs; type: cell-based; settings: 50 μM, 37° C., 16 hours
Protocol: (§1) Bone marrow cells were obtained from tibias and femurs of approximately 8 to 10 week old C57/BL/6 mice and cultured in RPMI 1640 media supplemented with 10% FCS, 100 U/ml of penicillin, 100 μg/ml of streptomycin in the presence of mIL-3 (10 ng/ml) and mSCF (50 ng/ml) for 6 weeks in an incubator containing 5% CO2 at 37° C. […] BMMC were activated by 1 μg/ml of anti-mouse DNP-IgE for overnight, followed by the treatment with 10 ng/ml of DNP-HSA for 6 hr to 24 hr.
(§2) In order to understand the inhibitory effect of capsiate on the increase of cytokines in activated BMMCs, BMMCs were treated with 50 μM of capsiate at 37° C. for 16 hours, and the expression levels of cytokines IL-6 and TNF-α were confirmed through ELISA assay. Capture antibody for IL-6 or TNF-α was added in ELISA plate and incubated overnight 4° C. Next day, the capture antibody was washed with PBS/Tween buffer, and blocking buffer was added. After 1 hr incubation at room temperature, the blocking buffer was washed out and standard or sample supernatant was added. The plate was incubated overnight at 4° C. and washed out. After washing, detection antibody for IL-6 and TNF-α was added and incubated for 1 hr at room temperature, followed by washing the plate. Streptavidin-HRP was added to each well, incubated at room temperature for 30 mins, and then the plate was washed. TMB was used as a substrate. After TMB was added to the plate, stop solution was added to stop color development, and the plate was read using ELISA reader.

[3] = system: activated mouse bone marrow derived mast cells (BMMCs); assay: Real-time PCR of cytokine transcripts in activated BMMCs; type: cell-based; settings: 50 μM, 37° C., 4 hours; BMMCs activated by anti-mouse DNP-IgE and DNP-HSA
Protocol: as §1
In order to understand the inhibitory effect of capsiate on the increase in cytokines in activated BMMCs, BMMCs were treated with 50 μM of capsiate at 37° C. for 4 hours, and the transcript expressions of cytokines IL-6 and TNF-α were confirmed through real-time PCR. Total RNAs were isolated from […] with RNeasy Mini kit (Quiagen, Valencia, Calif., USA) and the first strand of cDNA was synthesized using QuantTect Reverse Transcription kit (Quiagen, Germany). Real-time PCR was performed using KAPA SYBR fast qPCR kit (KAPA Blosystems, Woburn, Mass., USA). The following parameters were used for the PCR: 95° C. for 10 mins, followed by 50 cycles of 95° C. for 20 s, 55° C. for 30 s, and 72° C. for 20s. The gene expression levels were normalized with GAPDH expression level. The primer sets for IL-6 and TNF-α were purchased from QIAGEN.

[4] = system: activated human mast cell line (HMC-1 cells); assay: ELISA of cytokines in activated HMC-1 cells; type: cell-based; settings: 50 μM, 37° C., 16 hours
Protocol: as §2, with “HMC-1 cells were grown in IMDM media supplemented with 100 U/ml of penicillin, 100 µg/ml of streptomycin, and 10% heat-inactivated FBS in an incubator containing 5% CO2 at 37° C. HMC-1 cells were activated by treatment with A23187 and PMA In order” for “In order”, “in activated HMC-1 cells, HMC-1 cells were treated” for “in activated BMMCs, BMMCs were treated”, “of capsiate and capsaicin at 37°” for “of capsiate at 37°”, “Capture antibody was added” for “Capture antibody for IL-6 or TNF-α was added”, “detection antibody was added” for “detection antibody for IL-6 and TNF-α was added”

serum IgE = assay: Serum IgE level (ELISA) in atopic dermatitis mouse model induced by DNFB; type: in vivo, mice
Protocol: (§3) DNFB was sensitized by being diluted to 0.15% with a vehicle in which acetone and olive oil are mixed in a ratio of 3:1. Atopic dermatitis was induced by treating twice with a 0.2% DNFB solution. The capsiate-treated group was coated with 1 mM capsiate dissolved in acetone, 1 hour before DNFB treatment (See FIG. 5).
IgE capture antibody was added in the plate, and allowed to stand at 4° C. overnight. The next day, the capture antibody was washed with PBS/Tween buffer, and blocking buffer was added, followed by reaction at room temperature for 1 hour. After the blocking buffer was washed out, IgE standard and mouse serum were added, followed by standing at 4° C. overnight. The next day, after washing was performed, the IgE detection antibody was added, followed by reaction at room temperature for 1 hour. After washing was again performed, Streptavidin-HRP was added, followed by a reaction at room temperature for 30 minutes. After washing was again performed, TMB as a substrate was added. Then, a stop solution was added, and the absorbance was measured using an ELISA reader.

[5] = system: passive cutaneous anaphylaxis (PCA); assay: Passive cutaneous anaphylaxis (PCA): capillary vessel permeability and mouse ear thickness; type: in vivo
Protocol: The passive cutaneous anaphylaxis inhibitory effect of capsiate was verified by measuring capillary vessel permeability and mouse ear thickness. The capillary vessel permeability was verified by intravenously injecting Evan's blue, which is a blue staining agent, mixed with antigen, and quantifying the staining agent coming out from ear capillary vessels to the skin tissue. The quantification was conducted by cutting the ear tissue, putting the cut ear tissue in formamide, performing incubation at 65° C. for 16 hours, extracting Evan's blue in the ear tissue, and measuring the absorbance. The mouse ear thickness was measured using D15 ear thickness gauge.

[6] = system: Th2 cell differentiation, lymph node; assay: Th2 cell differentiation in lymph node of atopic dermatitis mouse model; type: in vivo, mice; settings: lymph node cells; intracellular staining CD4, IL-4, IL-5; dosing as in example 3-1
Protocol: as §3
(§4) After lymphocytes were taken out from mice, a single cell suspension was prepared, and then 3 μg/ml of anti-CD28 antibody was added in the plate to which anti-CD3 antibody adheres, followed by incubation for 3 days. On the third day, PMA (20 ng/ml) and ionomycin (1 μM) were added, followed by incubation for 5 hours. The cells were collected, and then subjected to intracellular staining using Cytofix/Cytoperm kit (BD bioscience) and anti-CD4 antibody, anti-IL-4 antibody, and anti-IL-5 antibody (BD bioscience). The dosing concentrations of DNFB and capsiate were the same as in example <3-1> above.

[7] = system: atopic dermatitis induced by 2,4-dinitro-1-fluorobenzene (DNFB) in mice; assay: Atopic dermatitis induced by DNFB in mice, histological staining and epidermal thickness; type: in vivo; settings: 1 mM capsiate in acetone coated 1 hour before DNFB treatment
Protocol: as §3
After being cut with induced atopic dermatitis, the skin tissue was fixed in 4% formaldehyde for 24 hours, followed by washing and dehydration, and then a […] skin section was prepared using a paraffin block. The tissue section was deparaffinized with xylene, immerged in alcohol, and then stained with hematoxyline and eosin. After the staining, the tissue was observed using a phase contrast microscope. As for the dermal thickness, the dermal thicknesses at five places on the tissue image were measured, and the mean and standard deviation thereof were obtained and shown on a graph.

[8] = system: BMCC induced with IgE antigen; assay: Pro-inflammatory cytokine expression (real-time PCR) in BMCC induced with IgE antigen; type: cell-based, mouse
Text: The inflammatory cytokine expression inhibitory effect of capsiate was verified in BMCC induced with IgE antigen. The transcript expressions of cytokines IL-1β, IL-6, and TNF-α were verified through real-time PCR. Real-time PCR conditions were established by the same method as in example <1-2> above, and the primer set was purchased from QIAGEN.

[9] = system: atopic dermatitis sites of mice; assay: Chemokine expression (real-time PCR) in mouse atopic dermatitis sites; type: in vivo; settings: atopic dermatitis site, 1 mM capsiate, dosing as in example 3-1
Protocol: as §3
(§5) The chemokine inhibitory effect of capsiate in atopic dermatitis sites of mice was verified. The dosing concentrations of DNFB and capsiate were the same as in example <3-1> above, and the transcript expressions of chemokines CCL11, CCL17, and CCL22 were confirmed through real-time PCR. Real-time PCR conditions were established by the same method as in example <1-2> above, and the primer set was purchased from QIAGEN.

[10] = system: Th2 cell differentiation, spleen; assay: Th2 cell differentiation in spleen of atopic dermatitis mouse model; type: in vivo, mice; settings: spleen cells; intracellular staining CD4, IL-4, IL-5; dosing as in example 3-1
Protocol: as §3
as §4, with “the spleen was” for “lymphocytes were”

[11] = system: atopic dermatitis sites of mice; assay: Cytokine expression (real-time PCR) in mouse atopic dermatitis sites; type: in vivo; settings: atopic dermatitis site, 1 mM capsiate, dosing as in example 3-1
Protocol: as §3
as §5, with “The cytokine” for “The chemokine”, “capsiate was verified at” for “capsiate in”, “of mice.” for “of mice was verified.”, “of cytokines IL-4” for “of chemokines CCL11, CCL17,”, “and TSLP” for “and CCL22”

| SMILES | transcript expression of IL-6 (real-time PCR) [1] | transcript expression of TNF-α (real-time PCR) [1] | expression level of IL-6 (ELISA) [2] | expression level of TNF-α (ELISA) [2] | transcript expression of IL-6 (real-time PCR) [3] | transcript expression of TNF-α (real-time PCR) [3] | expression level of IL-6 (ELISA) [4] | expression level of TNF-α (ELISA) [4] | other results |
| --- | --- | --- | --- | --- | --- | --- | --- | --- | --- |
| COc1cc(CNC(=O)CCCC/C=C/C(C)C)ccc1O [capsaicin, reference compound] | increased | increased | increased | increased | increased | increased | increased | increased | – |
| COc1cc(COC(=O)CCCC/C=C/C(C)C)ccc1O [capsiate] | significantly decreased | significantly decreased | significantly decreased | significantly decreased | significantly decreased | significantly decreased | significantly decreased | significantly decreased | level of serum IgE increased due to DNFB (serum IgE): decreased; capillary vessel permeability increased by DNP IgE ([5]; Evan's blue extracted from mouse ear tissue, absorbance): inhibited; ear edema increased by DNP IgE ([5]; mouse ear thickness, ear thickness gauge): inhibited; Th2 cell differentiation increased by DNFB at the lymph node [6]: inhibited; atopic dermatitis induced by DNFB in the mice [7]: inhibited; dermal thickness increased by DNFB ([7]; H&E stained skin section): decreased; transcript expression of IL-1β increased by IgE antigen [8]: decreased; transcript expression of IL-6 increased by IgE antigen [8]: decreased; transcript expression of TNF-α increased by IgE antigen [8]: decreased; transcript expression of CCL11 increased by DNFB [9]: decreased; transcript expression of CCL17 increased by DNFB [9]: decreased; transcript expression of CCL22 increased by DNFB [9]: decreased; Th2 cell differentiation increased by DNFB in the spleen [10]: inhibited; transcript expression of IL-4 increased by DNFB [11]: decreased; transcript expression of TSLP increased by DNFB [11]: decreased |
